Positions count from the first letter of the chain named.

One experiment has as its target T1, ALDH1A1 (WT) (Homo sapiens, UniProt P00352).
T1 sequence (P00352 1-501): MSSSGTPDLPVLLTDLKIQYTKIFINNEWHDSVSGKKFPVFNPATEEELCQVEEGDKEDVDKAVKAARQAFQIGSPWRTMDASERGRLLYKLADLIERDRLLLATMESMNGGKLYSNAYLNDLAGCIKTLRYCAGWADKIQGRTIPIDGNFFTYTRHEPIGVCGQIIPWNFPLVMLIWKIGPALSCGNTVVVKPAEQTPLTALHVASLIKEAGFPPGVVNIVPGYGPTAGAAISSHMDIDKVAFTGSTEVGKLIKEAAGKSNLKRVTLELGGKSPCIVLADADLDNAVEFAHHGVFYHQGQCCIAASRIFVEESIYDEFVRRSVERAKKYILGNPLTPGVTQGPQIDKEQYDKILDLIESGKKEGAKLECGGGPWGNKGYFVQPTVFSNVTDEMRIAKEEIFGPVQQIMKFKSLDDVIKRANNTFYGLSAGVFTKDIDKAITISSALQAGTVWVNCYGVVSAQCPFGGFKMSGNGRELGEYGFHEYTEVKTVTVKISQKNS
As to the kind of experiment: In vitro enzymatic inhibition assay, ALDH1A1 (WT). In kind it is biochemical.

Another experiment deals with T2, ALDH1A1 (S121) (Homo sapiens, UniProt P00352, N121S).
T2 sequence (P00352 1-501 N121S): T1 sequence (P00352 1-501) with N121S
As to the kind of experiment: In vitro enzymatic inhibition assay, ALDH1A1 (S121). In kind it is biochemical.

The target of the next experiment is T3, ALDH1A2 (Homo sapiens, UniProt O94788).
T3 sequence (O94788 1-518): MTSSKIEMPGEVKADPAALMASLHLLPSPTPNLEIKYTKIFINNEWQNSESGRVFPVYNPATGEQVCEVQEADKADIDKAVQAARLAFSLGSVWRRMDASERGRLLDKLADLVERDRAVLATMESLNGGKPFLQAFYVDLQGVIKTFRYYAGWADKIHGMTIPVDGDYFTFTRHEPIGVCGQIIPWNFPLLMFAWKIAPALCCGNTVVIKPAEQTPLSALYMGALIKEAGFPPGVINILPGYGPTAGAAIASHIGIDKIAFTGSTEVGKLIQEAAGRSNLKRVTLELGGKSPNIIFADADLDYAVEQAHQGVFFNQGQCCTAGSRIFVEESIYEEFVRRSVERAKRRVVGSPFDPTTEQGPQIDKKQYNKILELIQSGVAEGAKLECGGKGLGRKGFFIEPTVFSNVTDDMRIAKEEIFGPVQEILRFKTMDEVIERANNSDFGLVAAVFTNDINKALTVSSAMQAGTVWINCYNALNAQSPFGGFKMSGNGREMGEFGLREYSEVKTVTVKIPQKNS
As to the kind of experiment: In vitro enzymatic inhibition assay, ALDH1A2. In kind it is biochemical.

The target of another experiment is T4, ALDH1A3 (Homo sapiens, UniProt P47895).
T4 sequence (P47895 1-512): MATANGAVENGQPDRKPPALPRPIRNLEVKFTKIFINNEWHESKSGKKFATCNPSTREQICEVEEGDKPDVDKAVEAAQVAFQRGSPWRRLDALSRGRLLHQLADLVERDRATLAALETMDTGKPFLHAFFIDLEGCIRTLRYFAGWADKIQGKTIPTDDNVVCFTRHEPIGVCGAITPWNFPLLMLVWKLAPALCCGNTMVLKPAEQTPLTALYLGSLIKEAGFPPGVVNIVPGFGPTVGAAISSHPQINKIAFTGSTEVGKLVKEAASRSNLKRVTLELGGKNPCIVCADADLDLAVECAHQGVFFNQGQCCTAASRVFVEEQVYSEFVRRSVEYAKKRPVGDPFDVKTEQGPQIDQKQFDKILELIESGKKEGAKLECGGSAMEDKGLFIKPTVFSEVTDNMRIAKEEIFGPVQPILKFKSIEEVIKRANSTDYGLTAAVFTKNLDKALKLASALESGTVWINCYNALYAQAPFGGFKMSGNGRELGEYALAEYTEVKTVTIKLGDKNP
As to the kind of experiment: In vitro enzymatic inhibition assay, ALDH1A3. In kind it is biochemical. The conditions noted are these: 2 min incub.

The target in the next experiment is ALDH2 (Homo sapiens, UniProt P05091). As to the kind of experiment: In vitro enzymatic inhibition assay, ALDH2. In kind it is biochemical.
Chain of ALDH2 (P05091 18-517): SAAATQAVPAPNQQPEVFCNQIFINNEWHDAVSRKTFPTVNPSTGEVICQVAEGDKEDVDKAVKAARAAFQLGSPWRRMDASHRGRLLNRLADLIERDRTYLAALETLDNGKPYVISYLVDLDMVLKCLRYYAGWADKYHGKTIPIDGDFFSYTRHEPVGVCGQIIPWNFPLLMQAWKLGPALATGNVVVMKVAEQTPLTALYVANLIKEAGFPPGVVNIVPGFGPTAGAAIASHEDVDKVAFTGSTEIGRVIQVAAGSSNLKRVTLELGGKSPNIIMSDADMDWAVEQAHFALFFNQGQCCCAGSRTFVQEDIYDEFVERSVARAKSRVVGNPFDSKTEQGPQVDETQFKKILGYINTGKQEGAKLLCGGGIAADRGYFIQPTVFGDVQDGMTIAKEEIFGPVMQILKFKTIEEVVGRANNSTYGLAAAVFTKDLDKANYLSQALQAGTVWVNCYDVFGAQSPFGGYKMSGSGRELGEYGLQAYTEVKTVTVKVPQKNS
A further experiment relates to ALDH+ cells. The experiment in a line: Time to recovery after treatment, isolated ALDH+ cells. In kind it is cell-based. The text has this: (§1) A. Time to recovery for SKOV3 ovarian cancer cells treated with cisplatin or combined cisplatin and ALDH inhibitor. […] Cisplatin treated ALDH+ cells required approximately 6 days to recover whereas cisplatin treated ALDH− cells required 14 days to recover.

The next experiment has as its system ALDH− cells. The experiment in a line: Time to recovery after treatment, isolated ALDH− cells. In kind it is cell-based.
Description: as §1

For experiment [1], the system named is in vitro treated, PI-/Annexin-FACS isolated live cells. As to the kind of experiment: Tumor initiation capacity of in vitro treated live cells injected into mice. In kind it is in vivo. The protocol:
An important functional aspect of a cancer stem cell is the ability to initiate tumors with limited cell numbers. In order to determine if UM673 could impact tumor initiation, cells were treated in vitro with a single dose of UM673 alone or in combination with cisplatin. Cells were allowed to recover for three days and then PI(−)/Annexin(−) live cells were faxed isolated and injected into mice. 200, 1000, or 5000 cells from each treatment group (n=4-10/group) were injected.

Experiment [2] deals with A2780 tumor cell xenografts. As to the kind of experiment: A2780 tumor cell xenografts, tumor growth. To be noted: unsorted A2780 cells, treatment from day 3. In kind it is in vivo, mice. The protocol:
6-8 week old nude female mice were purchased from Charles River Laboratories. All xenograft experiments were performed with approval of the University Committee on Use and Care of Animals of the University of Michigan. To generate tumors, 7.5×10^4 unsorted A2780 cells or 7500 CD133+ sorted A2780 cells were combined with 100 μl of DPBS and 100 μl of Matrigel (BD Biosciences), and then implanted subcutaneously into bilateral axillae of each mouse. 3 days after inoculation with tumors, mice were given an intra-peritoneal injection of (1) control DMSO 40 μl, (2) Cisplatin 250 μg/ml, (3) UM #673 10 μM, or (4) Cisplatin plus UM #673 (n=9 mice per treatment group). Tumor growth was measured using calipers, and tumor volume was calculated based on the modified ellipsoid formula (L×W×W/2), where L is the length and W is the width of the tumor. The mice were euthanized when tumors reached 1.5 to 2 cm^3 and animal safety euthanasia guidelines were met. Intraperitoneal tumors were generated using 5×10^6 OVCAR8 in […] of PBS and injected I.P. 3 days after inoculation, mice were given intra-peritoneal injection of Cisplatin or Cisplatin plus UM #673.
The impact of UM673 as a single agent was evaluated. NOD/SCID mice were inoculated with 1×10^5 unsorted A2780 cells and treatment was initiated three days after tumor inoculation with either vehicle control or UM #673. […] This is consistent with other studies of CSC targeting agents.
The experiments were repeated in combination with cisplatin. In addition, xenografts from both whole cell line and FACS isolated CD133+ cells were treated.

Experiment [3] deals with primary human tumor xenografts. As to the kind of experiment: Primary human tumor xenografts from chemotherapy refractory ovarian cancer. In kind it is in vivo, mice. The conditions noted are these: treatment started at ˜500 mm^3. An excerpt:
In order to confirm in vivo activity against primary ovarian cancers, primary human tumor xenografts were generated from a patient with chemotherapy refractory ovarian cancer. Xenografts were allowed to grow until they reached ˜500 mm^3, and then treatment with either vehicle, cisplatin or cisplatin and UM 673 was initiated. […] After discontinuation of therapy, tumor regrowth was observed after approximately 4 weeks (FIG. 5D).

For the compound `Cc1cc(N2Cc3ccccc3C2)ccc1C=O` [673A], the IC50 on ALDH1A1 (WT) was determined as 216 ± 22 nM; on ALDH1A1 (S121) it was 230 ± 10 nM; at ALDH1A2, 211 ± 36 nM; against ALDH1A3, 170 ± 28 nM; against ALDH2, 1680 ± 190 nM.
Turning to `O=Cc1ccc(N2Cc3ccccc3C2)cc1` [673B], the IC50 against ALDH1A1 (WT) was 450 ± 35 nM; at ALDH1A1 (S121) it was 1240 ± 118 nM; against ALDH1A2 it was 800 ± 147 nM; against ALDH1A3, 1340 ± 480 nM; at ALDH2 it was over 20000 nM.
Turning to `N.N.[Cl][Pt][Cl]` [Cisplatin, reference compound], the “time to recover back to initial cell levels” value with ALDH+ cells is “approximately 6 days”. Moreover, the time to recover with ALDH− cells is listed as 14 days. Also, the “tumor initiation (tumors/injections)” value in experiment [1] (200 cells injected) was 1/4; in experiment [1] (1000 cells injected), 4/4; in experiment [1] (5000 cells injected) it was 8/8. For the same compound, the “effect on tumor initiation capacity” value in experiment [1] (compared to untreated controls) is “neither cisplatin or UM673 affected tumor initiation”. The figures for the tumor growth result in [2] and in experiment [3] were “modest restrictions in tumor growth” and “no effect on tumor growth”, respectively.

(Values after patent US9468632B2, “Methods and compositions for targeting cancer stem cells” (The Regents of the University of Michigan, priority 2012, dated 2016).)
